# In the METLIN SMRT retention time set (Domingo-Almenara et al. 2019):
# Assay: gradient 5% acetonitrile 3 min, to 50% in 2 min, to 85% in 15 min, held 3 min, 100 µL/min
# Conditions: column: Zorbax Extend-C18 2.1 x 50 mm; eluents: water / acetonitrile, 0.1% formic acid
# Method in brief: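 The mobile phases were water and acetonitrile, each with 0.1% formic acid, pumped at 100 μL/min through a Zorbax Extend-C18 column (2.1 × 50 mm, 1.8 μm). Pure standards were injected as mixtures of ~100 molecules and detected by a quadrupole time-of-flight mass spectrometer in positive and negative ionization mode. Retention time came from computationally picked adduct peaks, each inspected by hand.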
row,RP-LC retention time,Structure (SMILES)
1,740 s,CCOC(=O)c1c(S(=O)(=O)N2CCC(C(=O)Nc3nccs3)CC2)c(C)n(C)c1C
2,955 s,CC1CCCN(C(=O)c2cn(-c3cc(-c4nc(C(C)C)no4)ccn3)cn2)C1 (stereo not given)
3,856 s,CCCN1C(=O)c2cccnc2Sc2cc(C(=O)N3CCC(C)CC3)ccc21
4,969 s,COc1cc(Cl)c(NC(=O)C(=O)c2ccc[nH]2)c(OC)c1
5,586 s,Cc1nnc(N2CCC(C(=O)NCCN(C)C)CC2)c2nn(-c3ccc(Cl)cc3)c(C)c12
6,678 s,CN(C)C(=O)c1ccc2c(c1)nnn2CCNC(=O)Nc1ccc(Cl)cc1
7,704 s,O=C(NCc1ccc(Br)cc1)C1CCN(c2cncnc2N2CCCC2)CC1
8,1060 s,CCOC(=O)c1noc2ncnc(Nc3cc(C)cc(C)c3)c12
9,1070 s,CCCn1c(=O)c(C)nc2cc(-c3noc(COc4ccccc4)n3)ccc21
10,734 s,O=C(Cc1ccsc1)N1CCC(c2noc(C3CC3)n2)C1 (stereo not given)
11,612 s,CC(CCNC(=O)C(C)n1c2ccccc2c2cnn(C)c(=O)c21)N1CCCC1 (stereo not given)
12,1050 s,O=C(Nc1ccc(Cl)c([N+](=O)[O-])c1)Nc1nc2ccccc2s1
13,988 s,COc1ccc(Cl)cc1NC(=O)N1CCc2c(c(COc3ccccc3)nn2C)C1
14,700 s,Cc1nnc2c(=O)n(CC(=O)NCc3cccc(Cl)c3)c3cccnc3n12
15,618 s,O=C(CCc1nnn2c1CN(C(=O)Nc1ccccc1F)CC2)NC1CC1
16,616 s,O=C(NCc1ccc(N2CCCCC2)nc1)C1CCCCC1
17,810 s,Cc1ccc(S(=O)(=O)N2CCCC(C(=O)Nc3nnc(Cc4cccs4)o3)C2)cc1 (stereo not given)
18,580 s,CC(C)NC(=O)C1CCN(c2cncnc2N(C)C)CC1
19,841 s,Cc1c2c(nn1-c1ccc(SCC(=O)NC(C)C)nn1)CCC2
20,668 s,O=C(CCNC(=O)Cn1cnc2ccccc2c1=O)NCCc1c[nH]c2ccccc12
21,888 s,O=C(C1CCCN(c2ncnc3c2nc2n3CCCCC2)C1)N1CCCc2ccccc21 (stereo not given)
22,763 s,CC(=O)Nc1cccc(-c2nc(-c3cccc(-c4ccn[nH]4)c3)no2)c1
23,906 s,O=c1n(Cc2ccc(Cl)cc2)nc2ccc(S(=O)(=O)N3CCCC3)cn12

row,RP-LC retention time,Structure (SMILES)
1,989 s,Cc1ccc(-c2noc(C3CCCN3C(=O)C3CC(=O)N(c4ccc(C)cc4)C3)n2)cc1 (stereo not given)
2,1270 s,Cc1ccc(S(=O)(=O)N2CC(=O)N(C3CCCC3)C3(CCCCC3)C2)c(C)c1
3,587 s,O=c1c2nnn(-c3cccc(F)c3)c2ncn1Cc1cccnc1
4,830 s,CCn1ccc2c(cc(C(=O)Nc3ccc(C)c(F)c3)n2C)c1=O
5,899 s,CCOc1ccc(NS(=O)(=O)c2cc(C(=O)N3CCN(c4cccc(C)c4)C(C)C3)n[nH]2)cc1 (stereo not given)
6,769 s,Cc1cc(-n2c(C)nc3ccccc3c2=O)ccc1NC(=O)Cc1cccs1
7,1150 s,Cc1ccc(CC(=O)N2CCc3nc(-c4ccc(Cl)cc4)ncc3C2)cc1
8,1020 s,COc1ccc(-c2noc(C3CCCN3C(=O)c3cc(F)cc(F)c3)n2)cc1 (stereo not given)
9,607 s,Cc1noc(C)c1CCC(=O)N1CCCCC1c1nncn1C (stereo not given)
10,985 s,CCc1cc(C(=O)Nc2cccc(OC)c2)nc2ccnn12
11,948 s,CCCN1C(=O)COc2ccc(-c3noc(-c4ccc(NC(C)=O)cc4)n3)cc21
12,853 s,COc1cnc(SC)nc1Nc1ccc(C#N)cc1
13,643 s,CN(C)CCn1nnc2cc(-c3noc(-c4ccc(C#N)cc4)n3)ccc21
14,1070 s,Cc1ccc(Cn2cccc2C(=O)C(=O)NCc2ccco2)cc1C
15,794 s,COc1cccc(Nc2c(-c3ccc(OC)c(OC)c3)nc3cnccn23)c1
16,924 s,Cc1oc(-c2ccc(NC(=O)C3CCCCC3)cc2)nc1Cn1cccn1
17,631 s,COc1ccc(OC)c(NC(=O)C2(CCO)CCN(c3ncccn3)C2)c1 (stereo not given)
18,628 s,CCN(CC)C(=O)c1ccc2oc(CN3CCN(C(=O)NC(C)(C)C)CC3)nc2c1
19,805 s,CCn1cc(S(=O)(=O)N2CCCn3nc(-c4ccc(OC)cc4)cc3C2)cn1
20,1100 s,CCN1C(=O)COc2ccc(-c3noc(Cc4ccc(Cl)cc4)n3)cc21
21,1080 s,COc1cc(OC)cc(-c2nnc(Cc3nc(-c4ccc(C)cc4)no3)o2)c1
22,975 s,O=C1Nc2cc(C(=O)N3CCN(c4cccc(Cl)c4)CC3)ccc2N2CCCCC12 (stereo not given)
23,962 s,COc1ccc(Br)cc1S(=O)(=O)NCCc1ccccc1

row,RP-LC retention time,Structure (SMILES)
1,792 s,O=C(c1ccccc1F)N1CCCn2cc(-c3ccccc3F)nc21
2,868 s,COc1ccc(/C=C/c2ccc3c(c2)OCCO3)cc1O
3,693 s,Cc1ccc(NC(=O)NCC(c2cccnc2)c2c[nH]c3ccccc23)cc1F (stereo not given)
4,746 s,COc1cccc(CNC(=O)C2(C)CCCN(C(=O)Nc3ccc(OC)c(OC)c3)C2)c1 (stereo not given)
5,806 s,Cc1cc(NC(=O)c2nc3ccccc3s2)n(C(C)C)n1
6,576 s,Cc1cc2nn(CC(=O)NC(C)C)c(=O)n2c(-c2ccc(C(F)(F)F)cc2)n1
7,731 s,O=C1CC(C(=O)N2CCCC2)CN1CCc1c[nH]c2ccc(Cl)cc12 (stereo not given)
8,696 s,O=C(CN1CCc2ccccc2C1C(=O)N1CCCC1)N1CCN(c2ccccc2)CC1 (stereo not given)
9,1140 s,Cc1ccc(S(=O)(=O)Cc2ccc(-c3nc(-c4cccc(-c5ccnn5C)c4)no3)cc2)cc1
10,961 s,Cc1ccc(-n2c(N3CCCC(C(=O)NCC(C)c4ccccc4)C3)nc3ccsc3c2=O)cc1 (stereo not given)
11,974 s,Nc1nc(-c2ccccc2)nn1C(=O)c1ccc(F)cc1
12,872 s,CCc1noc(NC(C)=O)c1-c1ccc(C)c(S(=O)(=O)Nc2cc(Cl)ccc2OC)c1
13,755 s,CN1CCCc2cc(C(=O)NC3CCCCCC3)sc21
14,784 s,COc1cccc(NS(=O)(=O)c2cc3n(c2)CCN(CC(C)C)C3=O)c1
15,692 s,Oc1c(C(Nc2cccc(Cl)c2)c2cccnc2)ccc2cccnc12 (stereo not given)
16,854 s,CCC1Oc2ccc(S(=O)(=O)N3CCC(C(=O)Nc4cccc(OC)c4)CC3)cc2NC1=O (stereo not given)
17,609 s,Cc1noc(C2(NC(=O)/C=C/c3cccnc3)CCCCC2)n1
18,633 s,COc1ccc(C(=O)NCc2c(C)noc2C)cn1
19,740 s,CCOC1CCN(C(=O)NC2CCCCC2)CC1
20,646 s,Cc1cccc(OCCc2noc(C3CCNC3)n2)c1 (stereo not given)
21,764 s,O=C(Cc1c[nH]c2ccccc12)N1CCC(c2nc(C3CC3)no2)C1 (stereo not given)
22,890 s,CC(C)c1noc(-c2cccnc2-n2cnc(C(=O)Nc3ccc(F)cc3)c2)n1
23,673 s,COC(=O)C1C(O)CCC2CN3CCc4c([nH]c5ccccc45)C3CC21 (stereo not given)

row,RP-LC retention time,Structure (SMILES)
1,511 s,CCN(CC)c1nc(C(=O)NCc2ccncc2)nc2nc(C)cc(C)c12
2,877 s,CC(=O)c1cccc(NC(=O)Cn2cc(-c3ccccc3)c3ncn(C4CC4)c(=O)c32)c1
3,660 s,CCOC(=O)C1=C(CN2CCN(Cc3ccccc3)CC2)NC(=O)NC1c1cccc(OC)c1OC (stereo not given)
4,708 s,Cc1ccc(NC(=O)N2CCN(c3ccc(=O)n(-c4ccccc4)n3)CC2)cc1Cl
5,803 s,CN1C(=O)C2(CCN(C(=O)Cc3cccc(F)c3)C2)c2ccccc21 (stereo not given)
6,629 s,Cn1cc(-c2cc3n(n2)CCCN3C(=O)CCC(=O)NCc2ccccn2)c2ccccc21
7,958 s,Cc1ccc(S(=O)(=O)N2CCOCC2)cc1-c1nnc(-c2ccc(F)cc2)o1
8,925 s,Cc1cccc(Cn2c(=O)n(C)c(=O)c3snc(-c4ccccn4)c32)c1
9,678 s,O=C(NCC(O)Cc1ccccc1)c1c(F)cccc1F (stereo not given)
10,1050 s,CCN(CC)S(=O)(=O)c1ccc2c(c1)N(CC(=O)NC1CCCCCC1)C(=O)C1CCCCN21 (stereo not given)
11,874 s,CCN(CC)C(=O)N1CCC(Oc2ccc(-c3noc(COC)n3)cc2)C1 (stereo not given)
12,920 s,CCOc1ccccc1-n1ccn(Cc2nc(-c3ccc(C)cc3)no2)c(=O)c1=O
13,640 s,CC(C)(C)CN(C(=O)c1ccc(F)cc1)c1ccncc1
14,555 s,O=C(c1cc[nH]c(=O)c1)N1C[C@@H](COCC2CC2)[C@H](c2ccncc2)C1
15,1070 s,O=C(c1ccc(-c2csc(C3CC3)n2)cc1)N1CCCCCC1
16,1280 s,Cc1nc(-c2ccc(-c3noc(COc4ccc(Cl)cc4)n3)cc2)cs1
17,596 s,COc1cc([C@@H]2c3cc4c(cc3[C@H](O)[C@@H](CO)[C@@H]2C(=O)NCCCN(C)C)OCO4)cc(OC)c1OC
18,789 s,Cc1ccc(S(=O)(=O)N2CCC3(CC2)NCCN=C3NCc2ccc(C(F)(F)F)cc2)cc1
19,889 s,CCc1nc(OCC(=O)Nc2cccc(Br)c2)c2ccccc2n1
20,588 s,COCCNC(=O)C1CCCN(c2cnc3nccnc3c2)C1 (stereo not given)

row,Structure (SMILES),RP-LC retention time
1,COc1ccc2c(c1)C1(CCN(C(=O)c3cccc(C)c3)C1)C(=O)N2C (stereo not given),823 s
